Consider one compound from article PMC5218480 (PLoS ONE, 2017).

The assay deals with MV-4-11 cells. The assay is described as follows: Gene expression microarray analysis (Affymetrix PrimeView) and GSEA. To be noted: MV-4-11 cells, 48 hours. Format: cell-based, human. Further details: RFU PODN (11730768_x_at) / Fold change /veh PODN (11730768_x_at) / RFU LINC00158 (11744669_a_at) / Fold change /veh LINC00158 (11744669_a_at) / RFU DUSP10 (11751237_a_at) / Fold change /veh DUSP10 (11751237_a_at) / RFU ID3 (11757404_x_at) / Fold change /veh ID3 (11757404_x_at) / RFU PLEKHG5 (11737974_s_at) / Fold change /veh PLEKHG5 (11737974_s_at) / RFU LRRC4B (11730491_at) / Fold change /veh LRRC4B (11730491_at) / RFU GIMAP4 (11747438_a_at) / Fold change /veh GIMAP4 (11747438_a_at) / RFU KRT8 (11758183_x_at) / Fold change /veh KRT8 (11758183_x_at) / RFU CNN1 (11734310_a_at) / Fold change /veh CNN1 (11734310_a_at) / RFU VPS37D (11726825_at) / Fold change /veh VPS37D (11726825_at) / RFU C10orf10 (11716522_x_at) / Fold change /veh C10orf10 (11716522_x_at) / RFU KIR2DL2 /// KIR2DL4 /// KIR2DL5A /// KIR2DL5B /// KIR2DS1 /// KIR2DS2 /// KIR2DS3 /// KIR2DS4 /// KIR3DL3 /// KIR3DL3 /// KIR3DS1 (11738374_at) / Fold change /veh KIR2DL2 /// KIR2DL4 /// KIR2DL5A /// KIR2DL5B /// KIR2DS1 /// KIR2DS2 /// KIR2DS3 /// KIR2DS4 /// KIR3DL3 /// KIR3DL3 /// KIR3DS1 (11738374_at) / RFU C1QL1 (11718748_at) / Fold change /veh C1QL1 (11718748_at) / RFU TMPRSS4 (11747572_a_at) / Fold change /veh TMPRSS4 (11747572_a_at) / RFU HAMP (11756126_x_at) / Fold change /veh HAMP (11756126_x_at) / RFU RNFT2 (11725882_a_at) / Fold change /veh RNFT2 (11725882_a_at) / RFU NR4A2 (11747474_a_at) / Fold change /veh NR4A2 (11747474_a_at) / RFU ABCC12 (11746883_a_at) / Fold change /veh ABCC12 (11746883_a_at) / RFU TMEM136 (11760407_x_at) / Fold change /veh TMEM136 (11760407_x_at) / RFU CLDN22 /// WWC2 (11732394_at) / Fold change /veh CLDN22 /// WWC2 (11732394_at) / RFU HLA-DPB1 (11760878_x_at) / Fold change /veh HLA-DPB1 (11760878_x_at) / RFU SPINT1 (11716480_a_at) / Fold change /veh SPINT1 (11716480_a_at) / RFU GAP43 (11754022_s_at) / Fold change /veh GAP43 (11754022_s_at) / RFU A4GNT (11735810_at) / Fold change /veh A4GNT (11735810_at) / RFU PRB3 (11715151_x_at) / Fold change /veh PRB3 (11715151_x_at) / RFU TUBB4B (11761932_at) / Fold change /veh TUBB4B (11761932_at) / RFU CAPN14 (11732068_a_at) / Fold change /veh CAPN14 (11732068_a_at) / RFU TMCC2 (11721928_a_at) / Fold change /veh TMCC2 (11721928_a_at) / RFU IRGQ (11745062_a_at) / Fold change /veh IRGQ (11745062_a_at) / RFU FAM174B (11720279_a_at) / Fold change /veh FAM174B (11720279_a_at) / RFU TMPRSS4 (11748680_a_at) / Fold change /veh TMPRSS4 (11748680_a_at) / RFU FAM212B (11763350_a_at) / Fold change /veh FAM212B (11763350_a_at) / RFU PLEKHG5 (11743358_a_at) / Fold change /veh PLEKHG5 (11743358_a_at) / RFU ZSCAN30 (11745921_a_at) / Fold change /veh ZSCAN30 (11745921_a_at) / RFU CMKLR1 (11741424_a_at) / Fold change /veh CMKLR1 (11741424_a_at) / RFU LOC101060620 /// MAPK8IP1 (11723275_at) / Fold change /veh LOC101060620 /// MAPK8IP1 (11723275_at) / RFU SPTSSB (11747773_x_at) / Fold change /veh SPTSSB (11747773_x_at) / RFU PRSS12 (11739890_at) / Fold change /veh PRSS12 (11739890_at) / RFU BIN1 (11741810_x_at) / Fold change /veh BIN1 (11741810_x_at) / RFU WNT11 (11732464_a_at) / Fold change /veh WNT11 (11732464_a_at) / RFU C10orf10 (11716521_a_at) / Fold change /veh C10orf10 (11716521_a_at) / RFU C5orf56 (11738089_at) / Fold change /veh C5orf56 (11738089_at) / RFU CYB561 (11721691_x_at) / Fold change /veh CYB561 (11721691_x_at) / RFU ANKRD19P (11752326_a_at) / Fold change /veh ANKRD19P (11752326_a_at) / RFU OR2T12 /// OR2T33 /// OR2T8 (11738714_s_at) / Fold change /veh OR2T12 /// OR2T33 /// OR2T8 (11738714_s_at) / RFU VCAN (11748164_a_at) / Fold change /veh VCAN (11748164_a_at) / RFU JSRP1 (11732532_at) / Fold change /veh JSRP1 (11732532_at) / RFU KRTAP10-11 (11738290_x_at) / Fold change /veh KRTAP10-11 (11738290_x_at) / RFU MYO3A (11730013_a_at) / Fold change /veh MYO3A (11730013_a_at) / RFU EBF3 (11725865_a_at) / Fold change /veh EBF3 (11725865_a_at) / RFU CAMK2N1 (11719241_x_at) / Fold change /veh CAMK2N1 (11719241_x_at) / RFU C5orf56 (11738088_a_at) / Fold change /veh C5orf56 (11738088_a_at) / RFU OLFML3 (11715873_a_at) / Fold change /veh OLFML3 (11715873_a_at) / RFU LOC100653217 /// NTM (11731650_a_at) / Fold change /veh LOC100653217 /// NTM (11731650_a_at) / RFU MAPK11 (11762145_a_at) / Fold change /veh MAPK11 (11762145_a_at) / RFU FIZ1 (11724087_x_at) / Fold change /veh FIZ1 (11724087_x_at) / RFU OASL (11726364_x_at) / Fold change /veh OASL (11726364_x_at) / RFU SOX15 (11748057_x_at) / Fold change /veh SOX15 (11748057_x_at) / RFU CD79A (11719716_a_at) / Fold change /veh CD79A (11719716_a_at) / RFU HIST1H1D (11736915_at) / Fold change /veh HIST1H1D (11736915_at) / RFU CASKIN2 (11723855_a_at) / Fold change /veh CASKIN2 (11723855_a_at) / RFU LOC730098 (11760151_x_at) / Fold change /veh LOC730098 (11760151_x_at) / RFU OR4N2 (11742367_at) / Fold change /veh OR4N2 (11742367_at) / RFU PRRT2 (11749266_a_at) / Fold change /veh PRRT2 (11749266_a_at) / RFU SNX32 (11753110_a_at) / Fold change /veh SNX32 (11753110_a_at) / RFU CDHR5 (11726645_a_at) / Fold change /veh CDHR5 (11726645_a_at) / RFU RCAN1 (11760418_a_at) / Fold change /veh RCAN1 (11760418_a_at) / RFU FAM167A (11723789_a_at) / Fold change /veh FAM167A (11723789_a_at) / RFU FAM26E (11764081_at) / Fold change /veh FAM26E (11764081_at) / RFU ISYNA1 (11749810_s_at) / Fold change /veh ISYNA1 (11749810_s_at) / RFU ACY1 (11761880_at) / Fold change /veh ACY1 (11761880_at) / RFU 11764098_at / Fold change /veh 11764098_at / RFU SAMD14 (11745864_x_at) / Fold change /veh SAMD14 (11745864_x_at) / RFU NPB (11741838_a_at) / Fold change /veh NPB (11741838_a_at) / RFU TMPRSS6 (11731388_a_at) / Fold change /veh TMPRSS6 (11731388_a_at) / RFU KRTAP10-2 (11738614_at) / Fold change /veh KRTAP10-2 (11738614_at) / RFU ARHGAP8 /// PRR5-ARHGAP8 (11727945_x_at) / Fold change /veh ARHGAP8 /// PRR5-ARHGAP8 (11727945_x_at) / RFU KRTAP5-7 /// NADSYN1 (11734609_at) / Fold change /veh KRTAP5-7 /// NADSYN1 (11734609_at) / RFU RASL12 (11751679_a_at) / Fold change /veh RASL12 (11751679_a_at) / RFU CDKN2B (11736163_a_at) / Fold change /veh CDKN2B (11736163_a_at) / RFU PRF1 (11729649_at) / Fold change /veh PRF1 (11729649_at) / RFU, ZNF638 /// ZNF638-IT1 / Fold change vs veh, ZNF638 /// ZNF638-IT1 / RFU, PANK3 / Fold change vs veh, PANK3 / RFU, SH3YL1 / Fold change vs veh, SH3YL1 / RFU, ZEB2 / Fold change vs veh, ZEB2 / RFU, NRIP1 / Fold change vs veh, NRIP1 / RFU, PTTG1IP / Fold change vs veh, PTTG1IP / RFU, CAPN2 / Fold change vs veh, CAPN2 / RFU, MED14 / Fold change vs veh, MED14 / RFU, SNORA58 / Fold change vs veh, SNORA58 / RFU, C1orf63 / Fold change vs veh, C1orf63 / RFU, LRRFIP1 / Fold change vs veh, LRRFIP1 / RFU, NDUFAF7 / Fold change vs veh, NDUFAF7 / RFU, SLC12A2 / Fold change vs veh, SLC12A2 / RFU, IBTK / Fold change vs veh, IBTK / RFU, ESF1 / Fold change vs veh, ESF1 / Fold change vs veh, TMEM50B / RFU, TAOK1 / Fold change vs veh, TAOK1 / RFU, ACBD3 / Fold change vs veh, ACBD3 / RFU, TMA16 / Fold change vs veh, TMA16 / RFU, RWDD3 / Fold change vs veh, RWDD3 / RFU, BCAT1 / Fold change vs veh, BCAT1 / RFU, EDEM3 / Fold change vs veh, EDEM3 / RFU, TMEM33 / Fold change vs veh, TMEM33 / RFU, WDR75 / Fold change vs veh, WDR75 / RFU, AHCTF1 / Fold change vs veh, AHCTF1 / RFU, TFRC / Fold change vs veh, TFRC / RFU, ZDHHC17 / Fold change vs veh, ZDHHC17 / RFU, NOM1 / Fold change vs veh, NOM1 / RFU, ARL8B / Fold change vs veh, ARL8B / RFU, ZBTB11 / Fold change vs veh, ZBTB11 / RFU, TAMM41 / Fold change vs veh, TAMM41 / RFU, KIAA1704 /// LOC100996395 / Fold change vs veh, KIAA1704 /// LOC100996395 / RFU, ING1 / Fold change vs veh, ING1 / RFU, TRMT61B / Fold change vs veh, TRMT61B / RFU, FUBP3 / Fold change vs veh, FUBP3 / RFU, TP53 / Fold change vs veh, TP53 / RFU, TNKS2 / Fold change vs veh, TNKS2 / RFU, ZFP14 / Fold change vs veh, ZFP14 / RFU, ACTR2 / Fold change vs veh, ACTR2 / RFU, PPP3R1 / Fold change vs veh, PPP3R1 / RFU, PIK3R1 / Fold change vs veh, PIK3R1 / RFU, HNRNPA1 / Fold change vs veh, HNRNPA1 / RFU, RNF170 / Fold change vs veh, RNF170 / RFU, ZNF28 / Fold change vs veh, ZNF28 / RFU, RNGTT / Fold change vs veh, RNGTT / RFU, OGT / Fold change vs veh, OGT / RFU, BRD1 / Fold change vs veh, BRD1 / RFU, MARS / Fold change vs veh, MARS / RFU, ZNF655 / Fold change vs veh, ZNF655 / RFU, FAHD1 / Fold change vs veh, FAHD1 / RFU, BDP1 / Fold change vs veh, BDP1 / RFU, LRRCC1 / Fold change vs veh, LRRCC1 / RFU, ARID1A / Fold change vs veh, ARID1A / RFU, ZNF146 / Fold change vs veh, ZNF146 / RFU, ZNF330 / Fold change vs veh, ZNF330 / RFU, GPN3 / Fold change vs veh, GPN3 / RFU, C9orf123 / Fold change vs veh, C9orf123 / RFU, N4BP2L2 / Fold change vs veh, N4BP2L2 / RFU, ARFIP1 / Fold change vs veh, ARFIP1 / RFU, FAM179B / Fold change vs veh, FAM179B / RFU, BCL10 / Fold change vs veh, BCL10 / RFU, UHRF1BP1L / Fold change vs veh, UHRF1BP1L / RFU, BET1 / Fold change vs veh, BET1 / RFU, CNOT2 / Fold change vs veh, CNOT2 / RFU, ZNF268 / Fold change vs veh, ZNF268 / Fold change vs veh, ZNF507 / RFU, DGCR2 / Fold change vs veh, DGCR2 / RFU, WDSUB1 / Fold change vs veh, WDSUB1 / Fold change vs veh, HSP90B1 /// MIR3652 / RFU, ADSS / Fold change vs veh, ADSS / RFU, GK / Fold change vs veh, GK / RFU, ZNF148 / Fold change vs veh, ZNF148 / RFU, TAF9 / Fold change vs veh, TAF9 / RFU, SLC1A5 / Fold change vs veh, SLC1A5 / RFU, SLMO2 / Fold change vs veh, SLMO2 / RFU, ABCC4 / Fold change vs veh, ABCC4 / RFU, LOC101060439 /// RAP1B / Fold change vs veh, LOC101060439 /// RAP1B / RFU, RFX7 / Fold change vs veh, RFX7 / RFU, GTPBP10 / Fold change vs veh, GTPBP10 / RFU, CNEP1R1 / Fold change vs veh, CNEP1R1 / RFU, BIVM-ERCC5 /// ERCC5 / Fold change vs veh, BIVM-ERCC5 /// ERCC5 / RFU, ILF3 / Fold change vs veh, ILF3 / RFU 11762660_at / Fold change /veh 11762660_at / RFU VCAN (11757783_s_at) / Fold change /veh VCAN (11757783_s_at) / RFU DDX43 (11728927_at) / Fold change /veh DDX43 (11728927_at) / RFU KRT8 (11758188_x_at) / Fold change /veh KRT8 (11758188_x_at) / RFU NKD1 (11759106_at) / Fold change /veh NKD1 (11759106_at) / RFU SRD5A1 (11742802_a_at) / Fold change /veh SRD5A1 (11742802_a_at) / RFU TPSAB1 /// TPSB2 (11721975_s_at) / Fold change /veh TPSAB1 /// TPSB2 (11721975_s_at) / RFU GSTM3 (11746129_a_at) / Fold change /veh GSTM3 (11746129_a_at) / RFU IL23R (11737362_x_at) / Fold change /veh IL23R (11737362_x_at) / RFU TMEM51 (11727254_a_at) / Fold change /veh TMEM51 (11727254_a_at) / RFU PIWIL2 (11732686_x_at) / Fold change /veh PIWIL2 (11732686_x_at) / RFU ORM1 (11744905_x_at) / Fold change /veh ORM1 (11744905_x_at) / RFU CCDC152 (11743942_at) / Fold change /veh CCDC152 (11743942_at) / RFU ECM1 (11717891_a_at) / Fold change /veh ECM1 (11717891_a_at) / RFU IL23R (11748794_a_at) / Fold change /veh IL23R (11748794_a_at) / RFU TNFAIP8L3 (11732012_x_at) / Fold change /veh TNFAIP8L3 (11732012_x_at) / RFU MBOAT4 (11741988_at) / Fold change /veh MBOAT4 (11741988_at) / RFU 11764193_at / Fold change /veh 11764193_at / RFU TMEM53 (11763286_at) / Fold change /veh TMEM53 (11763286_at) / RFU MAGEB2 (11727129_at) / Fold change /veh MAGEB2 (11727129_at) / RFU TMEM200A (11744735_a_at) / Fold change /veh TMEM200A (11744735_a_at) / RFU CCDC152 (11751479_a_at) / Fold change /veh CCDC152 (11751479_a_at) / RFU FAM211A (11726209_a_at) / Fold change /veh FAM211A (11726209_a_at) / RFU RGS16 (11746705_a_at) / Fold change /veh RGS16 (11746705_a_at) / RFU VCAN (11755009_s_at) / Fold change /veh VCAN (11755009_s_at) / RFU RHOB (11743442_s_at) / Fold change /veh RHOB (11743442_s_at) / RFU RGS16 (11720943_a_at) / Fold change /veh RGS16 (11720943_a_at) / RFU RGS16 (11720944_at) / Fold change /veh RGS16 (11720944_at) / RFU, VPS4B / Fold change vs veh, VPS4B / RFU, CREB1 / Fold change vs veh, CREB1 / RFU, DNAJC13 / Fold change vs veh, DNAJC13 / RFU, GNAQ / Fold change vs veh, GNAQ / RFU, CDK5R1 / Fold change vs veh, CDK5R1 / RFU, ZRANB3 / Fold change vs veh, ZRANB3 / RFU, CUL4A / Fold change vs veh, CUL4A / RFU, CCNY / Fold change vs veh, CCNY / RFU, UFL1 / Fold change vs veh, UFL1 / RFU, COG3 / Fold change vs veh, COG3 / RFU, DIAPH2 / Fold change vs veh, DIAPH2 / RFU, SKA2 / Fold change vs veh, SKA2 / RFU, AFF3 / Fold change vs veh, AFF3 / RFU, LMF1 / Fold change vs veh, LMF1 / RFU, IPO11 / Fold change vs veh, IPO11 / RFU, DFFB / Fold change vs veh, DFFB / RFU, FOXP1 / Fold change vs veh, FOXP1 / RFU, CARD8 / Fold change vs veh, CARD8 / RFU, STRN3 / Fold change vs veh, STRN3 / RFU, ADK / Fold change vs veh, ADK / RFU, RASSF2 / Fold change vs veh, RASSF2 / RFU, WIPF1 / Fold change vs veh, WIPF1 / RFU, LARP1B / Fold change vs veh, LARP1B / RFU, RASA1 / Fold change vs veh, RASA1 / RFU, RB1 / Fold change vs veh, RB1 / RFU, PPFIA1 / Fold change vs veh, PPFIA1 / RFU, MAT2A / Fold change vs veh, MAT2A / RFU, CCT5 / Fold change vs veh, CCT5 / RFU, WDR92 / Fold change vs veh, WDR92 / RFU, CUX1 / Fold change vs veh, CUX1 / RFU, TTC7A / Fold change vs veh, TTC7A / RFU, TMEM135 / Fold change vs veh, TMEM135 / RFU, DEPTOR / Fold change vs veh, DEPTOR / RFU, CPM / Fold change vs veh, CPM / RFU, DNAJB6 / Fold change vs veh, DNAJB6 / RFU, CACNA2D3 / Fold change vs veh, CACNA2D3 / RFU, DTX4 / Fold change vs veh, DTX4 / RFU, TFCP2 / Fold change vs veh, TFCP2 / RFU, GMCL1 /// GMCL1P1 / Fold change vs veh, GMCL1 /// GMCL1P1 / RFU, AEBP2 / Fold change vs veh, AEBP2 / RFU, SNHG1 /// SNORD22 /// SNORD25 /// SNORD26 /// SNORD27 /// SNORD28 /// SNORD29 /// SNORD31 / Fold change vs veh, SNHG1 /// SNORD22 /// SNORD25 /// SNORD26 /// SNORD27 /// SNORD28 /// SNORD29 /// SNORD31 / Fold change (Aza/veh), C12orf56 (ProbeSet 11735607_a_at) / Fold change (ACY-1035/veh), C12orf56 (ProbeSet 11735607_a_at) / Fold change (Aza/veh), FGFR1OP (ProbeSet 11751329_s_at) / Fold change (ACY-1035/veh), FGFR1OP (ProbeSet 11751329_s_at) / Fold change (Aza/veh), VPS36 (ProbeSet 11739960_a_at) / Fold change (ACY-1035/veh), VPS36 (ProbeSet 11739960_a_at) / RFU SYPL1 (11715823_x_at) / Fold change /veh SYPL1 (11715823_x_at) / RFU IGFBP7 (11715501_s_at) / Fold change /veh IGFBP7 (11715501_s_at) / RFU REEP3 (11722064_at) / Fold change /veh REEP3 (11722064_at) / RFU IGLL1 (11728026_x_at) / Fold change /veh IGLL1 (11728026_x_at): dose or concentration left out as unconfirmed.

For `Nc1ncn([C@@H]2O[C@H](CO)[C@@H](O)[C@H]2O)c(=O)n1` [azacitidine], the “Fold change /veh SOX15 (11748057_x_at)” value amounted to 1.06.
